Patent US20220105150A1, “AMPHIPATHIC ALPHA-HELICAL ANTIMICROBIAL PEPTIDES TREAT INFECTIONS BY GRAM-NEGATIVE PATHOGENS” (priority 2019, published 2022)
In brackets after ≈: the same amount, converted by molar mass. Square brackets hold non-standard residues; d marks the D form. Peptide text beside a SMILES is read from it. Dab = NCC[C@H](N)C(=O)O

Experiments:
[1] = tested on: Acinetobacter baumannii strains resistant to Polymyxin B and Colistin; details: strains resistant to Polymyxin B and Colistin, 24 h
Excerpt: The coupling procedure used 5 equivalents of Fmoc-D-amino acid or Fmoc-L-amino acid and HCTU (O-(1H-6-chlorobenzotriazole-1-yl)-1,1,3,3-tetramethyluronium hexafluorophosphate) and 6-Cl-HOBt (1-hydroxy-6-chloro-benztriazole) at 4.5 equivalents in DMF (Fisher Scientific, Denver, Colo.) and N-diisopropylethylamine (DIPEA) 10 equivalents (Oakwood Products, Inc., Estill, S.C.) in N-methyl-2-pyrrolidinone (NMP) (Fisher Scientific, Denver, Colo.) with the first and second couplings at room temperature for 30 min each. The deprotection procedure (removal of Fmoc protecting group) was carried out by treatment of the resin with 0.1 M HOBt (1-hydroxybenzotriazole) in DMF with 20% piperidine for 30 min. […] The resin was removed by filtration and peptide was precipitated with ice-cooled ethyl ether on ice for 15 min. Ether was decanted, the peptide was washed twice with ether and redissolved in acetonitrile/water (1:1, with 0.2% TFA) and the solution lyophilized to obtain the crude peptide. • Analytical and Preparative Purification by Reversed-Phase Chromatography: Analytical RP-HPLC: Column, Luna C18 (2), 250×4.6 mm I.D., 5 μm particle size, 100 Å pore size from Phenomenex (Torrance, Calif.). Run conditions: linear AB gradient (1% acetonitrile/min, starting from 2% acetonitrile) at a flow-rate of 1 ml/min, where eluent A is 0.2% aq. TFA and eluent B is 0.18% TFA in acetonitrile; temperature, 30° C. Preparative RP-HPLC: Peptides were dissolved in 0.2% aq. TFA containing 2% acetonitrile to a final concentration of 10 mg/ml. Following filtration through a 0.45 μm Millipore filter and subsequently through a 0.22 μm filter, the peptide solutions were loaded onto the column via multiple 20-ml injections into a 20-ml injection loop at a flow-rate of 10 ml/min. Column, Luna C18 (2), 250×30 mm I.D., 5 um particle size, 100 Å pore size from Phenomenex. Run conditions: 2% acetonitrile/min gradient up to an acetonitrile concentration 10% below that required to elute the peptide during analytical RP-HPLC, then shallow gradient elution (0.05% or 0.1% acetonitrile/min depending on the complexity of impurities near the product of interest on the analytical run of the crude peptide) at a flow-rate of 10 ml/min (same eluents as shown above for analytical RP-HPLC); at room temperature. • Temperature Profiling of Peptides on Reversed-phase HPLC to Measure Dimerization and Oligomerization: Purified peptides were analyzed on an Agilent 1200 series liquid chromatograph for temperature profiling using a Zorbax 300 SB-C8 column (150 mm×2.1 mm I.D.; 5 μm particle size, 300 Å pore size) from Agilent Technologies. […] Temperature profiling was carried out on peptide mixtures run at each temperature in 2° C. increments from 5° C. to 41° C. and 10° C. increments from 5° C. to 75° C. Twenty minutes was allowed between runs for temperature equilibration. • Characterization of Helical Structure: The mean residue molar ellipticities of peptides were determined by circular dichroism (CD) spectroscopy, using a Jasco J-815 spectropolarimeter (Jasco Inc. Easton, Md., USA) at 5° C. under KP buffer (50 mM NaH2PO4/Na2HPO4/100 mM KCl, pH 7.0) as well as in the presence of an α-helix inducing solvent, 2,2,2-trifluoroethanol, TFE, (50 mM NaH2PO4/Na2HPO4/100 mM KCl, pH 7.0 buffer/50% TFE). A 10-fold dilution of an approximately 500 μM stock solution of the peptide analogs was loaded into a 0.1 cm quartz cell and its ellipticity scanned from 195 to 250 nm.

[2] = tested on: Acinetobacter baumannii isolates resistant to classical antibiotics; format: cell-based; details: isolates resistant to classical antibiotics
Excerpt: Thus, shortening the number of carbon atoms between the side-chain amino group and the α-carbon atom from four (Lys) to one (diaminopropionic acid) had very little effect on antibacterial activity (Table 2). We also determined the antibacterial activity of our five AMPs against 20 additional Acinetobacter baumannii isolates from four continents, 12 different countries and 17 different cities that were resistant to 18 different antibiotics. […] Thus, it is very clear that changing the type of positively-charged residue on the polar face of these AMPs had very little effect on the antibacterial activities.

Compound	MIC MB9941 [1] [µM]	MIC MB9949 [1] [µM]	MIC MB9951 [1] [µM]	MIC MB9952 [1] [µM]	MIC MB9953 [1] [µM]	MIC MB9955 [1] [µM]	MIC MB9963 [1] [µM]	MIC 101887 [2] [µM]	MIC 961997 [2] [µM]	MIC 963618 [2] [µM]	MIC 964304 [2] [µM]	MIC 977751 [2] [µM]	MIC 981653 [2] [µM]	MIC 1002956 [2] [µM]	MIC 1007660 [2] [µM]	MIC 1010282 [2] [µM]	MIC 1035166 [2] [µM]
CC(=O)N[C@H](CCCCN)C(=O)N[C@H](CC(C)C)C(=O)N[C@@H](CCN)C(=O)N[C@H](CO)C(=O)N[C@H](CC(C)C)C(=O)N[C@H](CC(C)C)C(=O)N[C@@H](CCN)C(=O)N[C@@H](C(=O)N[C@H](CC(C)C)C(=O)N[C@H](CO)C(=O)N[C@H](C)C(=O)N[C@H](C)C(=O)N[C@H](CCCCN)C(=O)N[C@@H](CCN)C(=O)N[C@@H](CCN)C(=O)N[C@H](CCCCN)C(=O)N[C@H](CC(C)C)C(=O)N[C@H](C)C(=O)N[C@@H](C(=O)N[C@H](CC(C)C)C(=O)N[C@H](CC(C)C)C(=O)N[C@@H](CCN)C(=O)N[C@H](C)C(=O)N[C@H](CC(C)C)C(=O)N[C@H](CO)C(=O)N[C@@H](CCN)C(N)=O)[C@H](C)O)[C@H](C)O [D89(Lys^1-6 Dab-2), Ac-KL(L-Dab)SLL(L-Dab)TLSAAK(L-Dab)(L-Dab)KLATLL(L-Dab)ALS(L-Dab)-amide] (Ac-[dK][dL][Dab][dS][dL][dL][Dab][dT][dL][dS][dA][dA][dK][Dab][Dab][dK][dL][dA][dT][dL][dL][Dab][dA][dL][dS][Dab]-NH2)	0.7 (≈ 1.89 µg/mL)	0.7 (≈ 1.89 µg/mL)	0.7 (≈ 1.89 µg/mL)	0.7 (≈ 1.89 µg/mL)	0.7 (≈ 1.89 µg/mL)	0.7 (≈ 1.89 µg/mL)	0.7 (≈ 1.89 µg/mL)										
CC(=O)N[C@H](CCCCN)C(=O)N[C@H](CC(C)C)C(=O)N[C@H](CCCNC(=N)N)C(=O)N[C@H](CO)C(=O)N[C@H](CC(C)C)C(=O)N[C@H](CC(C)C)C(=O)N[C@H](CCCNC(=N)N)C(=O)N[C@@H](C(=O)N[C@H](CC(C)C)C(=O)N[C@H](CO)C(=O)N[C@H](CCCNC(=N)N)C(=O)N[C@H](C)C(=O)N[C@H](CCCCN)C(=O)N[C@H](C)C(=O)N[C@H](C)C(=O)N[C@H](CCCCN)C(=O)N[C@H](CC(C)C)C(=O)N[C@H](CCCNC(=N)N)C(=O)N[C@@H](C(=O)N[C@H](CC(C)C)C(=O)N[C@H](CC(C)C)C(=O)N[C@H](CCCNC(=N)N)C(=O)N[C@H](C)C(=O)N[C@H](CC(C)C)C(=O)N[C@H](CO)C(=O)N[C@H](CCCNC(=N)N)C(N)=O)[C@H](C)O)[C@H](C)O [D87(Lys^1-6Arg-1), Ac-KL(Arg)SLL(Arg)TLS(Arg)AKAAKL(Arg)TLL(Arg)ALS(Arg)-amide]	1.3 (≈ 3.94 µg/mL)	1.3 (≈ 3.94 µg/mL)	0.7 (≈ 2.12 µg/mL)	0.7 (≈ 2.12 µg/mL)	0.7 (≈ 2.12 µg/mL)	0.7 (≈ 2.12 µg/mL)	0.7 (≈ 2.12 µg/mL)										
CC(=O)N[C@H](CCCCN)C(=O)N[C@H](CC(C)C)C(=O)N[C@H](CCCCN)C(=O)N[C@H](CO)C(=O)N[C@H](CC(C)C)C(=O)N[C@H](CC(C)C)C(=O)N[C@H](CCCCN)C(=O)N[C@@H](C(=O)N[C@H](CC(C)C)C(=O)N[C@H](CO)C(=O)N[C@H](CCCCN)C(=O)N[C@H](C)C(=O)N[C@H](CCCCN)C(=O)N[C@H](C)C(=O)N[C@H](C)C(=O)N[C@H](CCCCN)C(=O)N[C@H](CC(C)C)C(=O)N[C@H](CCCCN)C(=O)N[C@@H](C(=O)N[C@H](CC(C)C)C(=O)N[C@H](CC(C)C)C(=O)N[C@H](CCCCN)C(=O)N[C@H](C)C(=O)N[C@H](CC(C)C)C(=O)N[C@H](CO)C(=O)N[C@H](CO)C(N)=O)[C@H](C)O)[C@H](C)O [D101(Lys^1Ser^26-5Lys-1), Ac-KL(Lys)SLL(Lys)TLS(Lys)AKAAKL(Lys)TLL(Lys)ALS(Ser)-amide]	0.7 (≈ 1.98 µg/mL)	0.7 (≈ 1.98 µg/mL)	0.7 (≈ 1.98 µg/mL)	0.7 (≈ 1.98 µg/mL)	1.5 (≈ 4.24 µg/mL)	0.7 (≈ 1.98 µg/mL)	0.7 (≈ 1.98 µg/mL)	1.4 (≈ 3.95 µg/mL)	1.4 (≈ 3.95 µg/mL)	0.7 (≈ 1.98 µg/mL)	1.4 (≈ 3.95 µg/mL)	0.7 (≈ 1.98 µg/mL)	0.7 (≈ 1.98 µg/mL)	0.7 (≈ 1.98 µg/mL)	0.7 (≈ 1.98 µg/mL)	1.4 (≈ 3.95 µg/mL)	1.4 (≈ 3.95 µg/mL)
